Source: US12590083B2, “Inhibitors of spinster homolog 2 (SPNS2) for use in therapy” (University of Virginia Patent Foundation, priority 2019, dated 2026)
Where a name gives a salt, the structure may show the parent alone.

Biological target: T1, human SPNS2 (Homo sapiens, UniProt Q8IVW8)
T1 construct: expressed in transfected cells; host or cells: Saccharomyces cerevisiae strain with forced expression of a mammalian SphK and human SPNS2
T1 sequence (Q8IVW8 1-549): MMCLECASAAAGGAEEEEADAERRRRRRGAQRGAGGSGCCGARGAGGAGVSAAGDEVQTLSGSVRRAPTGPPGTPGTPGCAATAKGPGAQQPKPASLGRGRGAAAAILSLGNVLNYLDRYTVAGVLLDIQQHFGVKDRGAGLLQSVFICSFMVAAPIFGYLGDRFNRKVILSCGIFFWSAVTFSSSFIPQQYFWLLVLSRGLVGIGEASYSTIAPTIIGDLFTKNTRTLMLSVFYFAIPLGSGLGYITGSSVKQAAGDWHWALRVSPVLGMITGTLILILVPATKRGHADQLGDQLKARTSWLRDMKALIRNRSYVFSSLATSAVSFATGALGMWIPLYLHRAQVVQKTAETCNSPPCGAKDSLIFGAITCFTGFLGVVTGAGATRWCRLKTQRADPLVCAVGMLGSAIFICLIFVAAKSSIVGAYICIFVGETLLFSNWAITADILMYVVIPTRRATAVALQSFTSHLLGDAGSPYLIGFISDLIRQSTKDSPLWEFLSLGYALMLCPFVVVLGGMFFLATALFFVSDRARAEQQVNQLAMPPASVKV
Test: S1P transporter assay: growth of S. cerevisiae strain with forced expression of a mammalian SphK and human SPNS2
Format: cell-based
Details: in vitro inhibition of SPNS2; growth of S. cerevisiae strain expressing mammalian SphK and human SPNS2; compounds as their pharmaceutical salts
Excerpt: Transporter assays are vectorial and, therefore, require measurement of the transported analyte in different compartments. The assay of S1P transporters is problematic because S1P is exported, but not imported, by SPNS2, which obviates measuring uptake of mass- or radio-labeled S1P into transporter-expressing cells.
To assay for SPNS2 inhibitor hits, we took advantage of the growth inhibitory effects of excessive levels of phosphorylated Long Chain Base (phospho-LCB) levels on the budding yeast, S. cerevisiae (Kharel Y, et al. Saccharomyces cerevisiae as a platform for assessing sphingolipid lipid kinase inhibitors. PLoS One 13, e0192179 (2018) PMC5908134). Yeast lack the desaturase that converts dihydroceramide to ceramide and, therefore, have neither sphingosine nor S1P. Rather, yeast have the reduced form, dihydrosphingosine, and the 4-hydroxyl analog, phytosphingosine and their respective phosphates. Like all eukaryotes, the yeast synthesizes (via LCB kinases (SphKs)) and degrades (via phospho-LCB lyase and phosphatase) phospho-LCBs, (dhS1P, phytoS1P). Yeast lack phospho-LCB transporters such as SPNS2, which are found only in vertebrates. To assess inhibition of SPNS2 in vitro, we used a strain of S. cerevisiae wherein expression of a mammalian SphK and human SPNS2 were forced. SPNS2 inhibitors decrease the growth of this strain. Table 2 below presents in vitro inhibition data against SPNS2 for exemplary compounds, presented here as their pharmaceutical salts, of the disclosure (A≤2 μM, B>2 μM).

| Compound | IC50 [nM] |
| --- | --- |
| CCCCCCCOc1ccc2cc(-c3noc([C@@H]4CCNC4)n3)ccc2c1 [Compound 5aa, (R)-3-(6-(heptyloxy)naphthalen-2-yl)-5-(pyrrolidin-3-yl)-1,2,4-oxadiazole hydrochloride] | ≤ 2000 |
| CCCCCCCCc1ccc(-c2noc(C3CN(C(=N)N)C3)n2)cc1 [Compound 7d, 3-(3-(4-octylphenyl)-1,2,4-oxadiazol-5-yl)azetidine-1-carboximidamide hydrochloride] | > 2000 |
| CCCCCCCCCCc1ccc(-c2noc(CC3CN(C(=N)N)C3)n2)cc1 [Compound 7i] | ≤ 2000 |
| CCCCCCCOc1ccc2cc(-c3noc([C@@H]4CCN(C(=N)N)C4)n3)ccc2c1 [Compound 7kk, (R)-3-(3-(6-(heptyloxy)naphthalen-2-yl)-1,2,4-oxadiazol-5-yl)pyrrolidine-1-carboximidamide hydrochloride] | ≤ 2000 |
| CCCCCCCCCCc1ccc(-c2noc(C[C@@H]3CCN(C(=N)N)C3)n2)cc1 [Compound 7p, (S)-3-((3-(4-decylphenyl)-1,2,4-oxadiazol-5-yl)methyl)pyrrolidine-1-carboximidamide 2,2,2-trifluoroacetate] | ≤ 2000 |
| CCCCCCCCCCc1ccc(-c2noc(C[C@@H]3CCCN(C(=N)N)C3)n2)cc1 [Compound 7q, (S)-3-((3-(4-decylphenyl)-1,2,4-oxadiazol-5-yl)methyl)piperidine-1-carboximidamide 2,2,2-trifluoroacetate] | ≤ 2000 |
| CCCCCCCCCCc1cccc(-c2noc([C@@H]3CCN(C(=N)N)C3)n2)c1 [Compound 7t, (R)-3-(3-(3-decylphenyl)-1,2,4-oxadiazol-5-yl)pyrrolidine-1-carboximidamide hydrochloride] | > 2000 |
| CCCCCCCCCc1ccc(-c2noc([C@@H]3CCN(C(=N)N)C3)n2)cc1 [Compound 7xb, (R)-3-(3-(4-nonylphenyl)-1,2,4-oxadiazol-5-yl)pyrrolidine-1-carboximidamide hydrochloride] | ≤ 2000 |
| CCCCCCCCCc1ccc(-c2noc([C@@H]3CCCN(C(=N)N)C3)n2)cc1 [Compound 7yb, (R)-3-(3-(4-nonylphenyl)-1,2,4-oxadiazol-5-yl)piperidine-1-carboximidamide hydrochloride] | ≤ 2000 |
| CCCCCCCCCOc1ccc(-c2noc([C@@H]3CCCNC3)n2)cc1C(F)(F)F [Compound 12e] | ≤ 2000 |
| c1cc(N2CCCCC2)ncc1-c1noc([C@@H]2CCNC2)n1 [Compound 13a, (R)-3-(6-(piperidin-1-yl)pyridin-3-yl)-5-(pyrrolidin-3-yl)-1,2,4-oxadiazole hydrochloride] | > 2000 |
| CCCCCCCCNc1ccc(-c2noc([C@@H]3CCNC3)n2)cn1 [Compound 13b, (R)—N-octyl-5-(5-(pyrrolidin-3-yl)-1,2,4-oxadiazol-3-yl)pyridin-2-amine hydrochloride] | > 2000 |
| Fc1cc(Nc2ccc(-c3noc([C@@H]4CCCNC4)n3)cn2)ccc1OC(F)(F)F [Compound 13c, (R)—N-(3-fluoro-4-(trifluoromethoxy)phenyl)-5-(5-(piperidin-3-yl)-1,2,4-oxadiazol-3-yl)pyridin-2-amine hydrochloride] | > 2000 |
| c1cc(N2CCOCC2)ncc1-c1noc([C@@H]2CCNC2)n1 [Compound 13d, (R)-4-(5-(5-(pyrrolidin-3-yl)-1,2,4-oxadiazol-3-yl)pyridin-2-yl)morpholine hydrochloride] | > 2000 |
| Clc1ccccc1Nc1ccc(-c2noc([C@@H]3CCNC3)n2)cn1 [Compound 13e, (R)—N-(2-chlorophenyl)-5-(5-(pyrrolidin-3-yl)-1,2,4-oxadiazol-3-yl)pyridin-2-amine hydrochloride] | > 2000 |
| Brc1ccc(Br)c(Nc2ccc(-c3noc([C@@H]4CCNC4)n3)cn2)c1 [Compound 13f, (R)—N-(2,5-dibromophenyl)-5-(5-(pyrrolidin-3-yl)-1,2,4-oxadiazol-3-yl)pyridin-2-amine hydrochloride] | > 2000 |

The remaining lines, values ahead:

| IC50 [nM] | Compound |
| --- | --- |
| > 2000 | CCCCCCCCCCCc1ccc(-c2noc(C3CNC3)n2)cc1 [Compound 5a, 5-(azetidin-3-yl)-3-(4-undecylphenyl)-1,2,4-oxadiazole 2,2,2-trifluoroacetate] |
| > 2000 | CCCCCCCCCCc1ccc(-c2noc([C@H]3CCNC3)n2)cc1 [Compound 5e, (S)-3-(3-(4-decylphenyl)-1,2,4-oxadiazol-5-yl)pyrrolidin-1-ium 2,2,2-trifluoroacetate] |
| > 2000 | CCCCCCCCCCc1ccc(-c2noc([C@H]3CCCNC3)n2)cc1 [Compound 5f, (S)-3-(3-(4-decylphenyl)-1,2,4-oxadiazol-5-yl)piperidin-1-ium 2,2,2-trifluoroacetate] |
| > 2000 | CCCCCCCCCCc1ccc(-c2noc([C@@H]3CCNC3)n2)cc1 [Compound 5g, (R)-3-(3-(4-decylphenyl)-1,2,4-oxadiazol-5-yl)pyrrolidin-1-ium 2,2,2-trifluoroacetate] |
| > 2000 | CCCCCCCCCCc1ccc(-c2noc([C@@H]3CCCNC3)n2)cc1 [Compound 5h, (R)-3-(3-(4-decylphenyl)-1,2,4-oxadiazol-5-yl)piperidin-1-ium 2,2,2-trifluoroacetate] |
| ≤ 2000 | CCCCCCCCCCc1ccc(-c2noc(CC3CNC3)n2)cc1 [Compound 5j, 5-(azetidin-3-ylmethyl)-3-(4-decylphenyl)-1,2,4-oxadiazole 2,2,2-trifluoroacetate] |
| ≤ 2000 | CCCCCCCCCCc1ccc(-c2noc(C[C@H]3CCNC3)n2)cc1 [Compound 5l, (R)-3-(4-decylphenyl)-5-(pyrrolidin-3-ylmethyl)-1,2,4-oxadiazole 2,2,2-trifluoroacetate] |
| ≤ 2000 | CCCCCCCCCCc1ccc(-c2noc(C[C@@H]3CCNC3)n2)cc1 [Compound 5p, (S)-3-(4-decylphenyl)-5-(pyrrolidin-3-ylmethyl)-1,2,4-oxadiazole 2,2,2-trifluoroacetate] |
| ≤ 2000 | CCCCCCCCCCc1ccc(-c2noc(C[C@@H]3CCCNC3)n2)cc1 [Compound 5q, (S)-3-(4-decylphenyl)-5-(piperidin-3-ylmethyl)-1,2,4-oxadiazole 2,2,2-trifluoroacetate] |
| > 2000 | CCCCCCCCCCCc1ccc(-c2noc(C3CN(C(=N)N)C3)n2)cc1 [Compound 7a, 3-(3-(4-undecylphenyl)-1,2,4-oxadiazol-5-yl)azetidine-1-carboximidamide hydrochloride] |
| ≤ 2000 | CCCCCCCCCCc1ccc(-c2noc(C3CN(C(=N)N)C3)n2)cc1 [Compound 7b, 3-(3-(4-decylphenyl)-1,2,4-oxadiazol-5-yl)azetidine-1-carboximidamide hydrochloride] |
| ≤ 2000 | CCCCCCCCCc1ccc(-c2noc(C3CN(C(=N)N)C3)n2)cc1 [Compound 7c, 3-(3-(4-nonylphenyl)-1,2,4-oxadiazol-5-yl)azetidine-1-carboximidamide hydrochloride] |
| > 2000 | CCCCCCCCCCc1ccc(-c2noc([C@H]3CCN(C(=N)N)C3)n2)cc1 [Compound 7e, (S)-amino(3-(3-(4-decylphenyl)-1,2,4-oxadiazol-5-yl)pyrrolidin-1-yl)methaniminium chloride] |
| ≤ 2000 | CCCCCCCCCCc1ccc(-c2noc([C@H]3CCCN(C(=N)N)C3)n2)cc1 [Compound 7f, (S)-amino(3-(3-(4-decylphenyl)-1,2,4-oxadiazol-5-yl)piperidin-1-yl)methaniminium chloride] |
| > 2000 | CCCCCCCCCCc1ccc(-c2noc([C@@H]3CCN(C(=N)N)C3)n2)cc1 [Compound 7g, (R)-amino(3-(3-(4-decylphenyl)-1,2,4-oxadiazol-5-yl)pyrrolidin-1-yl)methaniminium chloride] |
| > 2000 | CCCCCCCCCCc1ccc(-c2noc([C@@H]3CCCN(C(=N)N)C3)n2)cc1 [Compound 7h, (R)-amino(3-(3-(4-decylphenyl)-1,2,4-oxadiazol-5-yl)piperidin-1-yl)methaniminium chloride] |
| ≤ 2000 | CCCCCCCCCCCc1ccc(-c2noc([C@@H]3CCN(C(=N)N)C3)n2)cc1 [Compound 7xa, (R)-3-(3-(4-undecylphenyl)-1,2,4-oxadiazol-5-yl)pyrrolidine-1-carboximidamide hydrochloride] |
| ≤ 2000 | CCCCCCCCCCCc1ccc(-c2noc([C@@H]3CCCN(C(=N)N)C3)n2)cc1 [Compound 7ya, (R)-3-(3-(4-undecylphenyl)-1,2,4-oxadiazol-5-yl)piperidine-1-carboximidamide hydrochloride] |
